Data taken from patent US6426360B1, “4,5-substituted imidazolyl compounds for the treatment of inflammation” (G D Searle & Co., priority 1994, dated 2002).
Marks after values point to notes of the source that are not given here.

Experiments:
carrageenan foot edema = assay: Rat Carrageenan Foot Pad Edema Test; format: in vivo; conditions: 30 mg/kg body weight, oral, dosed 1 h before carrageenan, foot volume 3 h after carrageenan
Protocol: The carrageenan foot edema test was performed with materials, reagents and procedures essentially as described by Winter, et al., (Proc. Soc. Exp. Biol. Med., 111, 544 (1962)). Male Sprague-Dawley rats were selected in each group so that the average body weight was as close as possible. Rats were fasted with free access to water for over sixteen hours prior to the test. The rats were dosed orally (1 ml) with compounds suspended in vehicle containing 0.5% methylcellulose and 0.025% surfactant, or with vehicle alone. One hour later a subplantar injection of 0.1 ml of 1% solution of carrageenan/sterile 0.9% saline was administered and the volume of the injected foot was measured with a displacement plethysmometer connected to a pressure transducer with a digital indicator. Three hours after the injection of the carrageenan, the volume of the foot was again measured. The average foot swelling in a group of drug-treated animals was compared with that of a group of placebo-treated animals and the. percentage inhibition of edema was determined (Otterness and Bliven, Laboratory Models for Testing NSAIDs, in Non-steroidal Anti-Inflammatory Drugs, (J. Lombardino, ed. 1985)).

[1] = system: carrageenan-induced hyperalgesic foot withdrawal; assay: Rat Carrageenan-induced Analgesia Test; format: in vivo; conditions: oral, 3 h after carrageenan
Protocol: The analgesia test using rat carrageenan was performed with materials, reagents and procedures essentially as described by Hargreaves, et al., (Pain, 32, 77 (1988)). Male Sprague-Dawley rats were treated as previously described for the Carrageenan Foot Pad Edema test. Three hours after the injection of the carrageenan, the rats were placed in a special plexiglass container with a transparent floor having a high intensity lamp as a radiant heat source, positionable under the floor. After an initial twenty minute period, thermal stimulation was begun on either the injected foot or on the contralateral uninjected foot. A photoelectric cell turned off the lamp and timer when light was interrupted by paw withdrawal. The time until the rat withdraws its foot was then measured. The withdrawal latency in seconds was determined for the control and drug-treated groups, and percent inhibition of the hyperalgesic foot withdrawal determined.

Human COX II = target: T1, Human COX II (Homo sapiens, UniProt P35354); assay: COX II activity in vitro (PGE2 ELISA, recombinant enzyme); format: biochemical; conditions: arachidonic acid 10 μM, pre-incubation 10-20 minutes; read-out: Human COX II ID50
T1 construct: A 2.0 kb fragment containing the coding region of either human or murine COX-I or human or murine COX-II; made in house; host or cells: SF9 insect cells (recombinant baculovirus, transfer vector pVL1393)
T1 sequence (P35354 18-604): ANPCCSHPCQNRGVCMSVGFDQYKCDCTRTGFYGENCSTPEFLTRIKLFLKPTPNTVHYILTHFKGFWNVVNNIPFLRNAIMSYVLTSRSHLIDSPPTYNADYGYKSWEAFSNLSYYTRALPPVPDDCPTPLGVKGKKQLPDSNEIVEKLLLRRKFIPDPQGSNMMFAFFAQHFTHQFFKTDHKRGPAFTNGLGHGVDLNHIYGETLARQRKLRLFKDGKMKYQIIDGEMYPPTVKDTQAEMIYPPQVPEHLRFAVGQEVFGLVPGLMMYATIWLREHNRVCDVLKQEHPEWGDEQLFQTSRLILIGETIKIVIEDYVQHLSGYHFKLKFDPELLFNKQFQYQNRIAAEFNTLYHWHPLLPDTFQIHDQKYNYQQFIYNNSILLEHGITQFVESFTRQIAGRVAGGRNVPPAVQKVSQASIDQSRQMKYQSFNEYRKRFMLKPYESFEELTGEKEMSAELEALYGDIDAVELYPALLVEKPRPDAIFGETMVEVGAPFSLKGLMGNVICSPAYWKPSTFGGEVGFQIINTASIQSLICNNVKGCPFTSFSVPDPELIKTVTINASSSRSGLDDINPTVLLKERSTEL
Protocol: The COX II inhibition activity of the compounds of this invention illustrated in the Examples was determined by the following methods.
(§1) A 2.0 kb fragment containing the coding region of either human or murine COX-I or human or murine COX-II was cloned into a BamH1 site of the baculovirus transfer vector pVL1393 (Invitrogen) to generate the baculovirus transfer vectors for COX-I and COX-II in a manner similar to the method of D. R. O'Reilly et al (Baculovirus Expression Vectors: A Laboratory Manual (1992)). Recombinant baculoviruses were isolated by transfecting 4 μg of baculovirus transfer vector DNA into SF9 insect cells ([…]) along with 200 ng of linearized baculovirus plasmid DNA by the calcium phosphate method. See M. D. Summers and G. E. Smith, A Manual of Methods for Baculovirus Vectors and Insect Cell Culture Procedures, Texas Agric. Exp. Station Bull. 1555 (1987). Recombinant viruses were purified by three rounds of plaque purification and high titer (10E7-10E8 pfu/ml), stocks of virus were prepared. For large scale production, SF9 insect cells were infected in 10 liter fermentors (0.5×10^6/ml) with the recombinant baculovirus stock such that the multiplicity of infection was 0.1. After 72 hours the cells were centrifuged and the cell pellet homogenized in Tris/Sucrose (50 mM: 25%, pH 8.0) containing 1% 3-[(3-cholamidopropyl)dimethylammonio]-1-propanesulfonate (CHAPS). The homogenate was centrifuged at 10,000×G for 30 minutes, and the resultant supernatant was stored at −80° C. before being assayed for COX activity.
(§2) COX activity was assayed as PGE2 formed/μg protein/time using an ELISA to detect the prostaglandin released. CHAPS-solubilized insect cell membranes containing the appropriate COX enzyme were incubated in a potassium phosphate buffer (50 mM, pH 8.0) containing epinephrine, phenol, and heme with the addition of arachidonic acid (10 μM). Compounds were pre-incubated with the enzyme for 10-20 minutes prior to the addition of arachidonic acid. Any reaction between the arachidonic acid and the enzyme was stopped after ten minutes at 37° C./room temperature by transferring 40 μl of reaction mix into 160 μl ELISA buffer and 25 μM indomethacin. The PGE2 formed was measured by standard ELISA technology (Cayman Chemical).

Human COX I = target: T2, Human COX I (Homo sapiens, UniProt P23219); assay: COX I activity in vitro (PGE2 ELISA, recombinant enzyme); format: biochemical; conditions: arachidonic acid 10 μM, pre-incubation 10-20 minutes; read-out: Human COX I ID50
T2 construct: A 2.0 kb fragment containing the coding region of either human or murine COX-I or human or murine COX-II; made in house; host or cells: SF9 insect cells (recombinant baculovirus, transfer vector pVL1393)
Protocol: as §1, §2

T2 sequence (P23219 24-599): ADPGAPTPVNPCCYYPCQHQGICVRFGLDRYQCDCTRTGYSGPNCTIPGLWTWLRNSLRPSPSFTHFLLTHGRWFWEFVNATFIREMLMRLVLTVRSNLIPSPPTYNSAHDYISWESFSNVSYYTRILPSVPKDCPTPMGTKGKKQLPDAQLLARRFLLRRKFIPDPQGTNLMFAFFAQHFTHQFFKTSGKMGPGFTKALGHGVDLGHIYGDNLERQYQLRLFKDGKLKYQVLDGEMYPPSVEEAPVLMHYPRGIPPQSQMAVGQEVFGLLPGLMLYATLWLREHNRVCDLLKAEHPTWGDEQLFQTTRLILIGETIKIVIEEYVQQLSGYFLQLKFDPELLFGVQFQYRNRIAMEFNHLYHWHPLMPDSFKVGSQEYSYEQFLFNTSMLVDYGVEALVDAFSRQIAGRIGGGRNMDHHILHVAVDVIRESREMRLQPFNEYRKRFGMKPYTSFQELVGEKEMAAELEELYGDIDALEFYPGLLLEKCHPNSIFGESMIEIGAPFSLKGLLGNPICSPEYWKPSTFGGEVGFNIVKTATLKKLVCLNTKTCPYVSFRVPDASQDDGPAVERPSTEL

Structure (SMILES)	IC50 (Human COX II) [µM]	IC50 (Human COX I) [µM]	melting point	RAT PAW EDEMA % Inhibition (carrageenan foot edema) [%]	ANALGESIA % Inhibition ([1]; 30 mg/kg body weight) [%]	ANALGESIA % Inhibition ([1]; 50 mg/kg body weight)
CS(=O)(=O)c1ccc(-c2[nH]c(S(=O)(=O)Cc3ccccc3)nc2-c2ccc(F)cc2)cc1 [Example 51, 4-(4-Fluorophenyl)-5-[4-(methylsulfonyl)phenyl]-2-[(phenylmethyl)sulfonyl]-1H-imidazole]	1.7	> 100	211 to 213 °C			
CC(=O)n1c(C(F)(F)F)nc(-c2ccc(S(C)(=O)=O)cc2)c1-c1cc(C)cc(Cl)c1 [Example 58, 1-[5-(3-Chloro-5-methylphenyl)-4-[4-(methylsulfonyl)phenyl]-2-(trifluoromethyl)-1H-imidazol-1-yl]ethanone]	0.2	> 100	257 °C	14		
CS(=O)(=O)c1ccc(-c2nc(C(F)(F)F)[nH]c2-c2cccs2)cc1 [Example 70, 4-[4-(Methylsulfonyl)phenyl]-5-(2-thiophenyl)-2-(trifluoromethyl)-1H-imidazole]	1.4	> 100	95 to 97 °C	27		29* %
CS(=O)(=O)c1ccc(-c2nc(C(F)(F)F)[nH]c2C2CCCCCC2)cc1 [Example 72, 5-[4-Cycloheptyl)-4-[4-(methylsulfonyl)phenyl]-2-(trifluoromethyl)-1H-imidazole]	3	> 100	206 to 207 °C			
COCc1nc(-c2ccc(S(C)(=O)=O)cc2)c(-c2ccc(F)cc2)[nH]1 [Example 79, 5-(4-Fluorophenyl)-2-(methoxymethyl)-4-[4-(methylsulfonyl)-phenyl]-1H-imidazole]	8.3	> 100	169 °C			
CS(=O)(=O)c1ccc(-c2[nH]c(C(=O)CCc3ccccc3)nc2-c2ccc(F)cc2)cc1 [Example 85]	0.4	> 100	227 to 231 °C			
COC(C)c1nc(-c2ccc(F)cc2)c(-c2ccc(S(C)(=O)=O)cc2)[nH]1 (centres unmarked) [Example 94, 4-(4-Fluorophenyl)-2-(1-methoxyethyl)-5-[4-(methyl-sulfonyl)phenyl]-1H-imidazole]	6.4	> 100	212 °C			

The next lines start with results.

IC50 (Human COX II) [µM]	IC50 (Human COX I) [µM]	melting point	Structure (SMILES)	RAT PAW EDEMA % Inhibition (carrageenan foot edema) [%]	ANALGESIA % Inhibition ([1]; 30 mg/kg body weight) [%]	ANALGESIA % Inhibition ([1]; 50 mg/kg body weight)
0.2	> 100	249 to 250 °C (dec.)	CS(=O)(=O)c1ccc(-c2nc(C(F)(F)F)[nH]c2-c2ccc(F)cc2)cc1 [Example 1, 5-(4-Fluorophenyl)-4-(4-methylsulfonylphenyl)-2-trifluoromethyl-1H-imidazole]	22	25	
0.3	> 100	255 to 257 °C	CSc1ccc(-c2[nH]c(C(F)(F)F)nc2-c2ccc(S(C)(=O)=O)cc2)cc1Cl [Example 55, 5-[3-Chloro-4-(methylthio)phenyl]-4-[4-(methylsulfonyl)phenyl]-2-(trifluoromethyl)-1H-imidazole]			
4.3	> 100	215 to 217 °C	CC(=O)c1nc(-c2ccc(F)cc2)c(-c2ccc(S(C)(=O)=O)cc2)[nH]1 [Example 83, 1-[4-(4-Fluorophenyl)-5-[4-(methylsulfonyl)phenyl]-1H-imidazol-2-yl] ethanone]			
5.3	> 100	291.7 °C	CS(=O)(=O)c1ccc(-c2[nH]c(C(=O)C(F)(F)F)nc2-c2ccc(F)cc2)cc1 [Example 89]			
3.9	> 100	126 to 130 °C	CS(=O)(=O)c1ccc(-c2[nH]c(C(O)C(F)(F)F)nc2-c2ccc(F)cc2)cc1 (centres unmarked) [Example 90, 4-(4-Fluorophenyl)-5-(4-(methylsulfonyl)phenyl]-a-(trifluoromethyl)-1H-imidazole-2-methanol]			
2.4	> 100	211 °C	CC(F)(F)c1nc(-c2ccc(F)cc2)c(-c2ccc(S(C)(=O)=O)cc2)[nH]1 [Example 95, 2-(1,1-Difluoroethyl)-4-(4-fluorophenyl)-5-[4-(methyl-sulfonyl)phenyl]-1H-imidazole]			
